In US20260250318A1, “COMPOSITIONS AND METHODS FOR CROSSING THE BLOOD BRAIN BARRIER” (VOYAGER THERAPEUTICS, INC., priority 2022, published 2026):

Assays:
Conditions in all cases: synthetic library passage 3, intravenous, relative to wild-type AAV9
[1] = tested on: brain, spinal cord, and DRG of the NHPs; assay: NGS fold enrichment of synthetic library (passage 3) in NHPs, first cross-species screen; type: in vivo, cynomolgus macaques (Macaca fascicularis)
How it was run: (§1)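 Passage-3 synthetic capsid library given intravenously […] to NHPs (2-4 years) and BALB/c or C57Bl/6 mice (n=3, 6-8 weeks). After e.g. 28 days, tissue RNA was RT-PCR amplified and NGS-sequenced; values are fold enrichment of each variant relative to wild-type AAV9.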

[2] = tested on: brain; assay: NGS fold enrichment of synthetic library (passage 3) in BALB/c mice, first cross-species screen; type: in vivo
How it was run: as §1

[3] = tested on: brain; assay: NGS fold enrichment of synthetic library (passage 3) in C57Bl/6 mice, first cross-species screen; type: in vivo
How it was run: as §1

Row | Sequence | Fold enrichment over AAV9 in the brain of NHPs ([1]; RNA NGS, brain of NHPs) [fold] | Fold enrichment over AAV9 in the spinal cord of NHPs ([1]; RNA NGS, spinal cord of NHPs) [fold] | Fold enrichment over AAV9 in the brain of Mice (BALB/c) ([2]; RNA NGS, brain of BALB/c mice) [fold] | Fold enrichment over AAV9 in the brain of Mice (C57Bl/6) ([3]; RNA NGS, brain of C57Bl/6 mice) [fold] | Fold enrichment over AAV9 in the brain of NHPs ([1]; RNA from brain of NHPs, NGS) [fold] | Fold enrichment over AAV9 in the spinal cord of NHPs ([1]; RNA from spinal cord of NHPs, NGS) [fold] | Fold enrichment over AAV9 in the brain of Mice (BALB/c) ([2]; RNA from brain of BALB/c mice, NGS) [fold] | Fold enrichment over AAV9 in the brain of Mice (C57Bl/6) ([3]; RNA from brain of C57Bl/6 mice, NGS) [fold]
1 | GSVFGVPSGQNQQT | 1.474 | 1.248 | 0.213 | 0.685 | – | – | – | –
2 | GSVGSRPVGQNQQT | 1.442 | 11.363 | 0.716 | 1.182 | – | – | – | –
3 | GSVHLSVTGQNQQT | 2.882 | 1.157 | 0.282 | 0.741 | – | – | – | –
4 | GSVHMQNAGQNQQT | 1.034 | 3.608 | 0.625 | 1.004 | – | – | – | –
5 | GSVLHSHAAQNQQT | 4.150 | 6.448 | 0.423 | 0.675 | – | – | – | –
6 | GSVSDVRAGQNQQT | 2.661 | 1.647 | 0.747 | 0.267 | – | – | – | –
7 | GSVSTHSSGQNQQT | 2.145 | 3.446 | 0.918 | 1.198 | – | – | – | –
8 | GSVTHGISGQNQQT | 2.105 | 4.542 | 0.789 | 1.135 | – | – | – | –
9 | GSYGMAASGQNQQT | 3.817 | 10.052 | 0.829 | 1.274 | – | – | – | –
10 | GTASTYNSGQNQQT | 1.099 | 2.560 | 0.625 | 0.250 | – | – | – | –
11 | GTDFGRQSSQNQQT | 2.346 | 3.196 | 0.797 | 1.021 | – | – | – | –
12 | GTEQTRQSGQNQQT | – | – | – | – | 1.188 | 0.132 | 0.756 | 0.756
13 | GTHPYTSSGQNQQT | 2.775 | 1.684 | 0.471 | 0.758 | – | – | – | –
14 | GTPTSPSSGQNQQT | 1.086 | 4.558 | 0.662 | 0.833 | – | – | – | –
15 | GTREMPLSGQNQQT | 2.339 | 2.830 | 0.538 | 1.436 | – | – | – | –
